Measured values published in patent US5684026A, “Aminocyclopentane derivative” (priority 1994, dated 1997).

Legend:
Type in all cases: biochemical
[1] = biological target: T1, β-Galactosidase (E. Coli, EC. 3.2.1.23) (Escherichia coli, UniProt P00722); assay: β-Galactosidase (E. coli) enzyme inhibition assay (o-nitrophenyl β-D-galactopyranoside)
T1 construct: purchased Sigma; host or cells: E. coli
Protocol: (§1) By using a 96-well microplate, the absorbance (at 405 nm) of liberated p- or o-nitrophenol was measured with a microplate reader (MPR-4Ai, manufactured by Tosoh Corporation).
(§2) The enzymes employed herein [α-glucosidase (Baker's yeast), β-glucosidase (Almonds), α-galactosidase (E. coli), β-galactosidase (E. coli) and β-galactosidase (Bovine Liver)] were all purchased from Sigma.
(§3) The substrates (p- or o-nitrophenylglycoside) of these enzymes were all purchased from Sigma.
4) β-Galactosidase (E. Coli, EC. 3.2.1.23) [described in G. R. Craven, E. Steers, Jr. and C. B. Anfinsen, J. Biol. Chem., 240, 2468-2477 (1965)]
Into each well were introduced an aqueous solution of a sample (2 μl), a buffer (153 μl), a 20 mM solution of o-nitrophenyl β-D-galactopyranoside in a buffer (25 μl), a 100 mM 2-mercaptoethanol (10 μl) and a (10 μg/ml) enzyme solution in the buffer (10 μl) to give a total volume of 200 μl. After incubating at room temperature (20°-30° C.) for 30 minutes, the absorbance (A405) of o-nitrophenol liberated by this enzyme reaction was measured. To give the blank absorbance (Ablank), the sample (2 μl), the substrate (25 μl), the buffer solution (163 μl) and 2-mercaptoethanol (10 μl) were incubated in the same manner followed by the measurement of the absorbance. To give the control absorbance (Acontrol), on the other hand, water (2 μl), the substrate (25 μl), the buffer solution (153 μl), 2-mercaptoethanol (10 μl) and the enzyme solution (10 μl) were incubated in the same manner followed by the measurement of the absorbance. A 50 mM phosphate buffer solution (pH 7.3, prepared from KH2 PO4 and K2 HPO4, containing 1.3 mM of MgCl2) was employed as the buffer for the enzyme reaction. The IC50 was determined in the same manner as employed in the case of α-glucosidase.

[2] = biological target: T2, α-Glucosidase (Baker's yeast, EC 3.2.1.20) (Saccharomyces cerevisiae, UniProt P53341); assay: α-Glucosidase enzyme inhibition assay (p-nitrophenyl α-D-glucopyranoside); conditions: for IC50: pH 6.8, 37° C., 30 minutes, read-out: IC50 (M) α-Glucosidase (Baker's yeast)
T2 construct: purchased Sigma; host or cells: Baker's yeast
Protocol: as §1
(§4) Incubation was carried out at 37° C. by using a natural incubator (Compact NIB-10, manufactured by Iwaki Glass Co., Ltd.).
as §2, §3
1) α-Glucosidase (Baker's yeast, EC 3.2.1.20) [described in H. Halvorson and L. Ellias, Biochim. Biophys. Acta, 30, 28-40 (1958)]
Into each well were introduced an aqueous solution of a sample (1 μl), a 0.66 mM solution of p-nitrophenyl α-D-glucopyranoside in a buffer (98 μl) and a (0.4 mg/ml) enzyme solution in the buffer (1 μl) to give a total volume of 100 μl. After incubating at 37° C. for 30 minutes, the reaction was ceased by adding a 1M aqueous solution of sodium carbonate (100 μl). Then the absorbance (A405) of p-nitrophenol liberated by this enzyme reaction was measured. To give the blank absorbance (Ablank), the sample (1 μl) and the substrate (99 μl) were incubated in the same manner and an aqueous solution of sodium carbonate (100 μl) was added followed by the measurement of the absorbance. […] The sample at each concentration, the blank and the control were treated each in two wells at the same time. As the buffer, a 0.1M phosphate buffer solution (pH 6.8, prepared from KH2 PO4 and K2 HPO4) was employed.

[3] = biological target: β-Glucosidase (Almonds, EC 3.2.1.21); assay: β-Glucosidase enzyme inhibition assay (p-nitrophenyl β-D-glucopyranoside); conditions: for IC50: pH 5.0, 37° C., 45 minutes
Protocol: as §1, §4, §2, §3
2) β-Glucosidase (Almonds, EC 3.2.1.21) [described in A. Kobayashi, Agr. Biol. Chem., 26, 203-207 (1962)]
Into each well were introduced an aqueous solution of a sample (1 μl), a 0.33 mM solution of p-nitrophenyl β-D-glucopyranoside in a buffer (98 μl) and a (0.4 mg/ml) enzyme solution in the buffer (1 μl) to give a total volume of 100 μl. After incubating at 37° C. for 45 minutes, the reaction was ceased by adding a 1M aqueous solution of sodium carbonate (100 μl). Then the absorbance (A405) of p-nitrophenol liberated by this enzyme reaction was measured. To give the blank absorbance (Ablank), the sample (1 μl) and the substrate (99 μl) were incubated in the same manner and an aqueous solution of sodium carbonate (100 μl) was added followed by the measurement of the absorbance. […] As the buffer, a 0.1M acetate buffer solution (pH 5.0, prepared from NaOAc and AcOH) was employed. The IC50 was determined in the same manner as employed in the case of α-glucosidase.

[4] = biological target: β-Galactosidase (Bovine liver. EC 3.2.1.23); assay: β-Galactosidase (Bovine liver) enzyme inhibition assay (o-nitrophenyl β-D-galactopyranoside); conditions: pH 7.3, room temperature, 30 minutes
Protocol: as §1, §2, §3
5) β-Galactosidase (Bovine liver. EC 3.2.1.23) [described in T. Aoyagi, T. Hazato, M. Kumagai, M. Hamada, T. Takeuchi and H. Umezawa, J. Antibiot., 28, 1006-1008 (1975)]
Into each well were introduced an aqueous solution of a sample (2 μl), a buffer (158 μl), a 20 mM solution of o-nitrophenyl β-D-galactopyranoside in a buffer (25 μl), a 100 mM 2-mercaptoethanol (10 μl) and a (5 mg/ml) enzyme solution in the buffer (5 μl) to give a total volume of 200 μl. After incubating at room temperature (20°-30° C.) for 30 minutes, the absorbance (A405) of o-nitrophenol liberated by this enzyme reaction was measured. To give the blank absorbance (Ablank), the sample (2 μl), the substrate (25 μl), the buffer solution (163 μl) and 2-mercaptoethanol (10 μl) were incubated in the same manner followed by the measurement of the absorbance. […] The IC50 was determined in the same manner as the one employed in the case of α-glucosidase.

[5] = tested on: α-Galactosidase (E. Coli, EC. 3.2.1.22); assay: α-Galactosidase enzyme inhibition assay (p-nitrophenyl α-D-galactopyranoside); conditions: pH 6.5, room temperature, 15 minutes
Protocol: as §1, §2, §3
3) α-Galactosidase (E. Coli, EC. 3.2.1.22) [described in H. Suzuki, S-C. Li and Y-T. Li, J. Biol. Chem., 245, 781-786 (1970)]
Into each well were introduced an aqueous solution of a sample (1 μl), a buffer (74 μl), a 9.9 mM solution of p-nitrophenyl α-D-galactopyranoside in a buffer (20 μl) and a (50 μg/ml) enzyme solution in the buffer (5 μl) to give a total volume of 100 μl. After incubating the resulting mixture at room temperature (20°-30° C.) for 15 minutes, the reaction was ceased by adding a 0.2M borate buffer solution (pH 9.8, prepared from NaOH and H3 BO3, 100 μl). Then the absorbance (A405) of p-nitrophenol liberated by this enzyme reaction was measured. To give the blank absorbance (Ablank), the sample (1 μl), the substrate (20 μl) and the buffer solution (79 μl) were incubated in the same manner and the 0.2M borate buffer solution (100 μl) was added followed by the measurement of the absorbance. To give the control absorbance ([…]), on the other hand, water (1 μl), the substrate (20 μl), the buffer solution (74 μl) and the enzyme solution (5 μl) were incubated in the same manner and the borate buffer solution (100 μl) was added followed by the measurement of the absorbance. A 0.1M phosphate buffer solution (pH 6.5, prepared from KH2 PO4 and K2 HPO4) was employed as the buffer for the enzyme reaction. The IC50 was determined in the same manner as employed in the case of α-glucosidase.

T2 sequence (P53341 whole entry): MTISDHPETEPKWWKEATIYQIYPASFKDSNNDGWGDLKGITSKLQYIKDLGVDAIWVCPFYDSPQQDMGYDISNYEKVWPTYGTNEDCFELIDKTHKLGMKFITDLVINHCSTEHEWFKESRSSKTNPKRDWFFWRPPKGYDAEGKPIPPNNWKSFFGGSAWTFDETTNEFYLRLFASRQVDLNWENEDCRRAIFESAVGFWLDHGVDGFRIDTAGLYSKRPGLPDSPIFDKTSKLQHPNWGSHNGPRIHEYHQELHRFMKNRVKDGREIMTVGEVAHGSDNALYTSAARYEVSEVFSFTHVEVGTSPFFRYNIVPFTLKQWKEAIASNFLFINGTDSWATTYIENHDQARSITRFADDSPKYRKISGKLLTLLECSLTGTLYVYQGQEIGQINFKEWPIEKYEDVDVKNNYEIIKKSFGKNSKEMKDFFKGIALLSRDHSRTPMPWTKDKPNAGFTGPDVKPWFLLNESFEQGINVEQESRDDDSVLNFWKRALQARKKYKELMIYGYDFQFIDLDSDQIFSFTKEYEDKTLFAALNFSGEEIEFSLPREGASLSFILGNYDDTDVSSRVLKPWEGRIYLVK
T1 sequence (P00722 2-1024 limits assumed): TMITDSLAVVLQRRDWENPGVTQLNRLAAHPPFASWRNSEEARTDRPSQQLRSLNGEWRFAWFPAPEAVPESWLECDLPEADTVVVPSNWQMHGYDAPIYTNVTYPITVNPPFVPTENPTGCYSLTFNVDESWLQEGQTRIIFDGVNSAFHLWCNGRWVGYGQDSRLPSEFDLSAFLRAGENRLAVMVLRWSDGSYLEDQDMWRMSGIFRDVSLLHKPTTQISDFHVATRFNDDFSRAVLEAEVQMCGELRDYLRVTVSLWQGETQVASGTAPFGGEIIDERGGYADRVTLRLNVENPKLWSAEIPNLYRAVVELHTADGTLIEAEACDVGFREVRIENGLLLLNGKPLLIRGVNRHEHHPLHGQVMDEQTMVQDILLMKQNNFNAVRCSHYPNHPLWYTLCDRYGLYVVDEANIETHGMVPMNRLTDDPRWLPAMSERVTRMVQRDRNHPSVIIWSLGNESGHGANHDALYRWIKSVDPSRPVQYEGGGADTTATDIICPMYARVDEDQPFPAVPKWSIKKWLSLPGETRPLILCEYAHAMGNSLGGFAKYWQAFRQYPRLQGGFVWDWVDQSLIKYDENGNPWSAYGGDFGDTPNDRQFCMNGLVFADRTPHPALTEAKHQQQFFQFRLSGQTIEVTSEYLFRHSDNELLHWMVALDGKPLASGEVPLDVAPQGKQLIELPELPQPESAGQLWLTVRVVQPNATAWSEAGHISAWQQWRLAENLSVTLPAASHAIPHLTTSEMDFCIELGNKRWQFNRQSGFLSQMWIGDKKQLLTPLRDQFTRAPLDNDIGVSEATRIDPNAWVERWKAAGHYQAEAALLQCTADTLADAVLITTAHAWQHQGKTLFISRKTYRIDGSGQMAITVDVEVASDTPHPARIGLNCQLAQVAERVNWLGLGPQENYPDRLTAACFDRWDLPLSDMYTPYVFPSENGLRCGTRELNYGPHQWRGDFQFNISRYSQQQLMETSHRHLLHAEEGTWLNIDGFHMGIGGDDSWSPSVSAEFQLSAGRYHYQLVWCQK

## OC[C@@]1(O)[C@@H]2N=C(Nc3ccccc3)O[C@@H]2C(O)[C@@H]1O (stereo in doubt) [Compound 1-1L, (1S,5R,6S,7S,8R)-6-hydroxymethyl-3-phenylamino-2-oxa-4-azabicyclo[3.3.0]oct-3-ene-6,7,8-triol]
[1]
  IC50: > 300 µM
[2]; compared with deoxynojirimycin, summary of Tables 1 and 2
  inhibitory activity against α-glucosidase (in words): remarkably strong inhibitory activities
[2]
  IC50: 2.93e-08 M
[3]
  IC50: > 300 µM
[3]; summary of Table 1
  inhibitory activity against β-glucosidase (in words): weak inhibitory activities
[4]
  IC50: 153 µM
[5]
  IC50: > 300 µM

## OC[C@@]1(O)[C@H](O)C(O)[C@@H]2OC(Nc3ccccc3)=N[C@@H]21 (stereo in doubt) [Compound 1-1D, (1R,5S,6R,7R,8S)-6-hydroxymethyl-3-phenylamino-2-oxa-4-azabicyclo[3.3.0]oct-3-ene-6,7,8-triol]
[1]
  IC50: > 300 µM
[2]
  IC50: 2.32e-06 M
[3]
  IC50: > 300 µM
[4]
  IC50: 3 µM
[5]
  IC50: > 300 µM
